22 molecules from article PMC7883042 (Peptide Science (Hoboken, N.j.), 2021) can be followed below.

Values joined by “and” are separate entries in the source; they are usually repeats but may differ in a detail not shown here. Equal values may be shown once. Bridge positions count the residues as written; N and C are the ends. Square brackets hold non-standard residues; d marks the D form. Peptide text beside a SMILES is read from it. R8 = C=CCCCCCC[C@@](C)(N)C(=O)O; S5 = C=CCCC[C@](C)(N)C(=O)O

Series [1] is classed as physicochemical. Particulars: pH 7.4.
Another series can be described thus: circular dichroism. Particulars: PBS; pH 7.4; rt °C; 100 uM. Background: CD spectra are sensitive to the conformation of chiral molecules.
Series [2] has as its system SARS‐CoV‐2 spike (Wuhan‐Hu‐1 strain) pseudovirus with HIV core, entry into 293 T ACE2 expressing cells. Format: cell-based.

For the molecule “Ac-IEEQAKTFR8DKFNHES5EDLFYQS-NH2 (sidechain bridge or staple) [Peptide 5]”, the “% Helicity” value in series [1] is reported as 31.3%.

As to “Ac-IEEQAR8TFLDKFS5HEAEDLFYQS-NH2 (sidechain bridge or staple) [Peptide 4]”, the “% Helicity” value in series [1] was 57.9%.

As for `CC(=O)N[C@@H](Cc1c[nH]cn1)C(=O)N[C@@H](CCC(=O)O)C(=O)N[C@@]1(C)CCCC=CCCC[C@@](C)(C(=O)N[C@@H](Cc2ccc(O)cc2)C(=O)N[C@@H](CCC(N)=O)C(=O)N[C@@H](CO)C(N)=O)NC(=O)[C@H](CC(C)C)NC(=O)[C@H](CC(=O)O)NC(=O)[C@H](CCC(=O)O)NC1=O` (Ac-HE[S5]EDL[S5]YQS-NH2; staple 3-7), the helicity in the series “circular dichroism” amounted to 33.4%.

For the molecule “Ac-TS5LDKS5NHEAEDL-NH2 (sidechain bridge or staple) [Peptide 15]”, in series [1], the “% Helicity” value is given as 21.0%.

Consider Ac-TFLDKFNHEAEDL-NH2 [Peptide 13], for which the “% Helicity” value in series [1] is 8.6%.

Consider “Ac-IEEQAKTFLDKFNHER8EDLFYQS5-NH2 (sidechain bridge or staple) [Peptide 8]”, for which the “inhibition of viral entry” value in series [2] is reported as “None of these compounds including stapled peptide 8 inhibited viral entry”. Also, in series [1], the “% Helicity” value is 72% and 72.2%.

With “Ac-IEEQR8KTFLDKS5NHE-NH2 (sidechain bridge or staple) [Peptide 12]”, in series [1], the “% Helicity” value is listed as 12.2%.

In “circular dichroism”, Ac-HEAEDLFYQS-NH2 gave a helicity of 5.9%.

Take “Ac-TFR8DKFNHES5EDL-NH2 (sidechain bridge or staple) [Peptide 14]”: the “% Helicity” value in series [1] is listed as 16.1%.

Turning to `CC(=O)N[C@H](C(=O)N[C@@H](Cc1ccccc1)C(=O)N[C@]1(C)CCCCCC/C=C/CCC[C@@](C)(C(=O)N[C@@H](CCC(=O)O)C(=O)N[C@@H](CC(=O)O)C(=O)N[C@@H](CC(C)C)C(N)=O)NC(=O)[C@H](CCC(=O)O)NC(=O)[C@H](Cc2c[nH]cn2)NC(=O)[C@H](CC(N)=O)NC(=O)[C@H](Cc2ccccc2)NC(=O)[C@H](CCCCN)NC(=O)[C@H](CC(=O)O)NC1=O)[C@@H](C)O` (Ac-TF[R8]DKFNHE[S5]EDL-NH2; staple (E) 3-10), the helicity in “circular dichroism” was 16.1%.

In the case of “Ac-IEEQAKTFLDKR8NHEAEDS5FYQS-NH2 (sidechain bridge or staple) [Peptide 6]”, the “% Helicity” value in series [1] worked out at 23.5%.

In the case of “Ac-FHTSEYDEQNEIEAAQLFKDFLK-NH2 [Scrambled negative control]”, the “inhibition of viral entry” value in series [2] is reported as “None of these compounds including stapled peptide 8 inhibited viral entry”.

“Ac-IR8EQAKTFS5LKFNHEAEDLFYQS-NH2 (sidechain bridge or staple) [Peptide 2]”: in series [1], the “% Helicity” value is recorded as 35.4%.

With Ac-TFLDKFNHEAEDL-NH2, the helicity in “circular dichroism” is 8.6%.

Molecule `CC[C@H](C)[C@H](NC(C)=O)C(=O)N[C@@H](CCC(=O)O)C(=O)N[C@@H](CCC(=O)O)C(=O)N[C@@H](CCC(N)=O)C(=O)N[C@]1(C)CCCCCC/C=C/CCC[C@@](C)(C(=O)N[C@@H](CC(N)=O)C(=O)N[C@@H](Cc2c[nH]cn2)C(=O)N[C@@H](CCC(=O)O)C(N)=O)NC(=O)[C@H](CCCCN)NC(=O)[C@H](CC(=O)O)NC(=O)[C@H](CC(C)C)NC(=O)[C@H](Cc2ccccc2)NC(=O)[C@H]([C@@H](C)O)NC(=O)[C@H](CCCCN)NC1=O` (Ac-IEEQ[R8]KTFLDK[S5]NHE-NH2; staple (E) 5-12) yielded a helicity in the series “circular dichroism” of 12.2%.

In turn, Ac-IEEQAKTFLDKFNHE-NH2 had a helicity in the series “circular dichroism” of 9.6%.

As for “IEEQAKR8FLDKFNS5EAEDLFYQS (sidechain bridge or staple) [Stapled negative control]”, the “inhibition of viral entry” value in series [2] is “None of these compounds including stapled peptide 8 inhibited viral entry”.

Consider “Ac-IEEQR8KTFLDKS5NHEAEDLFYQS-NH2 (sidechain bridge or staple) [Peptide 3]”, for which, in series [1], the “% Helicity” value was determined as 55.6%.

In the series “circular dichroism”, `CC(=O)N[C@H](C(=O)N[C@@]1(C)CCCC=CCCC[C@@](C)(C(=O)N[C@@H](CC(N)=O)C(=O)N[C@@H](Cc2c[nH]cn2)C(=O)N[C@@H](CCC(=O)O)C(=O)N[C@@H](C)C(=O)N[C@@H](CCC(=O)O)C(=O)N[C@@H](CC(=O)O)C(=O)N[C@@H](CC(C)C)C(N)=O)NC(=O)[C@H](CCCCN)NC(=O)[C@H](CC(=O)O)NC(=O)[C@H](CC(C)C)NC1=O)[C@@H](C)O` showed a helicity of 21%.

Consider “Ac-IEEQAKTFLDKFR8HEAEDLS5YQS-NH2 (sidechain bridge or staple) [Peptide 7]”, for which the “% Helicity” value in series [1] was determined as 54.5%.

For Ac-IEEQAKTFLDKFNHE-NH2 [Peptide 11], the “% Helicity” value in series [1] was 9.6%.

In the case of Ac-HEAEDLFYQS-NH2 [Peptide 9], the “% Helicity” value in series [1] came out at 5.9%.
